In BindingDB's records for patent US20230322769 (Jiangsu Chia Tai Fenghai Pharmaceutical, 2023):
pIC50: −log10 of the molar value. “And” between values parts separate entries of the source, which are not always exact repeats. Identical values can stand only once. One block for each compound: values may come before it.

Key:
[1] = target: Coiled-coil domain-containing protein 6/Proto-oncogene tyrosine-protein kinase receptor Ret (Homo sapiens, UniProt P07949); experiment: Inhibition of RET Family Kinases Activity
[2] = target: Proto-oncogene tyrosine-protein kinase receptor Ret (Homo sapiens, UniProt P07949); experiment: Inhibition of RET Family Kinases Activity
[3] = target: Proto-oncogene tyrosine-protein kinase receptor Ret [M918T] (Homo sapiens, UniProt P07949, M918T); experiment: Inhibition of RET Family Kinases Activity
[4] = target: Proto-oncogene tyrosine-protein kinase receptor Ret [V804M] (Human, UniProt P07949, V804M); experiment: Inhibition of RET Family Kinases Activity
[5] = target: Vascular endothelial growth factor receptor 2 (Homo sapiens, UniProt P35968); experiment: Inhibition of RET Family Kinases Activity
[6] = target: Potassium voltage-gated channel subfamily H member 2 (Homo sapiens, UniProt Q12809); experiment: Inhibition of hERG Potassium Channel
Procedure: Whole-cell patch-clamp recording was carried out. […] This procedure was repeated every 20 seconds. The hERG tail current was a pure hERG current.

Sequence of Proto-oncogene tyrosine-protein kinase receptor Ret [V804M] (P07949 29-1114 V804M limits assumed): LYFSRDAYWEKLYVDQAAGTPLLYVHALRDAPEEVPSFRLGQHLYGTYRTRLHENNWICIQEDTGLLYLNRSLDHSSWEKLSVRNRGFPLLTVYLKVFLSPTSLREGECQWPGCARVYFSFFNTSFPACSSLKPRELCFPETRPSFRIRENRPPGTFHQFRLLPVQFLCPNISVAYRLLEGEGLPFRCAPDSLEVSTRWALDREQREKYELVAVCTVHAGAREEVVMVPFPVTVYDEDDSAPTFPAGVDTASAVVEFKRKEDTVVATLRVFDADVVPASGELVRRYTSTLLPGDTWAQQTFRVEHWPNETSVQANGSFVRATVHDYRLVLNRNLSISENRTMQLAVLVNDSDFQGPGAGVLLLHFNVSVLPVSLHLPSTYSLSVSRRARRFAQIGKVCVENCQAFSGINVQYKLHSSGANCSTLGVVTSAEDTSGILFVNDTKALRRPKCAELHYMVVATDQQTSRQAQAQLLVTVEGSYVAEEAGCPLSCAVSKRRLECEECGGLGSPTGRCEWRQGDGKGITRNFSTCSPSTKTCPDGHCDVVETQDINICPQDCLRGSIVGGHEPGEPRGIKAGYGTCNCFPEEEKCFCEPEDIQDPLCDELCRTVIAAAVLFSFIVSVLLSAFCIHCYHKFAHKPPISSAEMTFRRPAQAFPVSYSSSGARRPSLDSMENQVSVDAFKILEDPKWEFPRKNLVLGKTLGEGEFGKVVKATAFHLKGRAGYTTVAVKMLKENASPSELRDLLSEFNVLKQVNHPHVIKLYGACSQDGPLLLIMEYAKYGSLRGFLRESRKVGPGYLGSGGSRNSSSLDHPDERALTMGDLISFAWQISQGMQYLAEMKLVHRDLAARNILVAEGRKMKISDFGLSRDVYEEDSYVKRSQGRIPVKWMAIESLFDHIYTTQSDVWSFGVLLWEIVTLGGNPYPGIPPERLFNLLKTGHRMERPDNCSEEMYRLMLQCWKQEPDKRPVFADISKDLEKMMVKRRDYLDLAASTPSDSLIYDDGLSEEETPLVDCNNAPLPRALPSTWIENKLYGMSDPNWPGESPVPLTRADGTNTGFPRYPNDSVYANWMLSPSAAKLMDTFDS
Sequence of Proto-oncogene tyrosine-protein kinase receptor Ret (P07949 whole entry): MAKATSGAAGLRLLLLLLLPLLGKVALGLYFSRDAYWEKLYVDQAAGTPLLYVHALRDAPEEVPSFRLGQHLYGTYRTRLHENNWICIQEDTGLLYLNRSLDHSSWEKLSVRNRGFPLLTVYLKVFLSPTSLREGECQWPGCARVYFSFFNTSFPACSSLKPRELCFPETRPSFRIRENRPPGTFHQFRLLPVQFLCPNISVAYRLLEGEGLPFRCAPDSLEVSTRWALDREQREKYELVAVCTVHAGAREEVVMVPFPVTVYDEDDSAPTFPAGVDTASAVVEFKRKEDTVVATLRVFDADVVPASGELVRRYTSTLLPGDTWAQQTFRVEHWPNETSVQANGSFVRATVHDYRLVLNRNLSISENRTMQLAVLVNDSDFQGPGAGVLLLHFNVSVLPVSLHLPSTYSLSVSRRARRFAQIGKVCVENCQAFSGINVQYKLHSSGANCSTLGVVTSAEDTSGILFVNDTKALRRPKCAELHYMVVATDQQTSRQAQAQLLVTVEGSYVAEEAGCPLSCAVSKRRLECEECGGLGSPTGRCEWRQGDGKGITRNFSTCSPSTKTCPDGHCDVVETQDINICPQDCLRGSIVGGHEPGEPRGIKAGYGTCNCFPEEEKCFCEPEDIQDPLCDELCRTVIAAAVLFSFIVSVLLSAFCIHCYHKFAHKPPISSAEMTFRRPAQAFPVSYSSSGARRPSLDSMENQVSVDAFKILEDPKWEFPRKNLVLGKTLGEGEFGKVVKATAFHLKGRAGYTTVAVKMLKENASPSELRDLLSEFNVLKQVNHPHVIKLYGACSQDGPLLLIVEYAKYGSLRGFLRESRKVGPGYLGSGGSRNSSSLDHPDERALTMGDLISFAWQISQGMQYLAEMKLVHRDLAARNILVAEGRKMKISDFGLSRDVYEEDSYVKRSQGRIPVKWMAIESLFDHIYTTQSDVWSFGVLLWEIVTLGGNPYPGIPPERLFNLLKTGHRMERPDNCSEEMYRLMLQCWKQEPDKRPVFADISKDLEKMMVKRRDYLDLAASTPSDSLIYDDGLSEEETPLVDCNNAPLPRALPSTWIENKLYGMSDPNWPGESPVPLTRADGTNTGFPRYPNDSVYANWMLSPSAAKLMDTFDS
Sequence of Coiled-coil domain-containing protein 6/Proto-oncogene tyrosine-protein kinase receptor Ret (P07949 whole entry, the tested form may be a part): as the sequence (P07949 whole entry) above
Sequence of Coiled-coil domain-containing protein 6/Proto-oncogene tyrosine-protein kinase receptor Ret (Q16204 whole entry, further chain, the tested form may be a part): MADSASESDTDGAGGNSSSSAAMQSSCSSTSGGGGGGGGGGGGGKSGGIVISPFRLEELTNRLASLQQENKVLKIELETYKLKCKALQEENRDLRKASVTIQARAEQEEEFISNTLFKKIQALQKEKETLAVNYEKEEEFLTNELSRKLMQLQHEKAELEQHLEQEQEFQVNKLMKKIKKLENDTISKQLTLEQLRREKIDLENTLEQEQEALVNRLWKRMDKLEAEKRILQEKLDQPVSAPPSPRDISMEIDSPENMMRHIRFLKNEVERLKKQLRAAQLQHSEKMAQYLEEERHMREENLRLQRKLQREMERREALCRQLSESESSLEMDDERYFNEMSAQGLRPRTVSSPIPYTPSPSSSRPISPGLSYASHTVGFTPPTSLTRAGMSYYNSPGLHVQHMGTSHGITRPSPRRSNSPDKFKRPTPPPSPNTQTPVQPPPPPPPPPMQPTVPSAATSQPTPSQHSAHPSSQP
Sequence of Proto-oncogene tyrosine-protein kinase receptor Ret [M918T] (P07949 29-1114 M918T limits assumed): as the sequence (P07949 29-1114 V804M limits assumed) above, with M776V, M890T counted along it
Sequence of Vascular endothelial growth factor receptor 2 (P35968 whole entry): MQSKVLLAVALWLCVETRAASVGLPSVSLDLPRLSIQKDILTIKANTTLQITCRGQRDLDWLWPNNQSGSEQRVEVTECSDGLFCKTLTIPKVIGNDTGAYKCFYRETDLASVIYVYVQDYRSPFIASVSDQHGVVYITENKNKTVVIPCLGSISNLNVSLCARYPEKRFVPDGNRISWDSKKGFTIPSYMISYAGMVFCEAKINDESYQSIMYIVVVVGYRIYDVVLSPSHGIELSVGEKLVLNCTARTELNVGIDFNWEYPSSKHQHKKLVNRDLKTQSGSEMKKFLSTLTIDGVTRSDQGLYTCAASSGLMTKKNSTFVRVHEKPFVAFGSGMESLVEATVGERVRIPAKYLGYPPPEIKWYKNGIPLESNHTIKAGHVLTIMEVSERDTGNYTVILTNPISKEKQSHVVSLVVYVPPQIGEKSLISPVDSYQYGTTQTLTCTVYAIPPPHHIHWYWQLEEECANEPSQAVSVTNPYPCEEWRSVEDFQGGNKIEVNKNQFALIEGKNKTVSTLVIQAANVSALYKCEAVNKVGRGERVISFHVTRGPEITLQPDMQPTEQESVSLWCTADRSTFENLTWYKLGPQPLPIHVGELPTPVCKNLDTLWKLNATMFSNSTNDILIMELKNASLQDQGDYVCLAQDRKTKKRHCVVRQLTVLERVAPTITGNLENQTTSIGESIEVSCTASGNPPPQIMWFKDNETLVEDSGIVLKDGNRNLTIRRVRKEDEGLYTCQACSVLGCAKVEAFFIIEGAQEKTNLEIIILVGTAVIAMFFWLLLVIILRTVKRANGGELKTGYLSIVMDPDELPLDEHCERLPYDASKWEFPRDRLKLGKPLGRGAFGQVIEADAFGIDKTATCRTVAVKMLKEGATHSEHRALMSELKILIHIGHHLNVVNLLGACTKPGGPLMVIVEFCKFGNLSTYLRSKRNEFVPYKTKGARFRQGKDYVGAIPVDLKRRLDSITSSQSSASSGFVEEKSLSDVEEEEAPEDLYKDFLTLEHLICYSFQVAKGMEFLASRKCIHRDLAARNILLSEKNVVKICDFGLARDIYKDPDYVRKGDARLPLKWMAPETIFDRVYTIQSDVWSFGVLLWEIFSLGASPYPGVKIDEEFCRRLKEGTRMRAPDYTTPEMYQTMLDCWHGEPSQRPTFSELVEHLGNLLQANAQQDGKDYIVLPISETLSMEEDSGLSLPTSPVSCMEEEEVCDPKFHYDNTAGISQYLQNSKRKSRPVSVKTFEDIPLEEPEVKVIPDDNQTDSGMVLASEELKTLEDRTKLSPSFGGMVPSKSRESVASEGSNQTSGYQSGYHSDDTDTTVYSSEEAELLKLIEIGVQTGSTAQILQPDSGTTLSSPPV

Compound: COc1ccc(CN2C3CC2CN(c2ccc(-c4cc(N5CC6CC(C5)N6)cn5ncc(C#N)c45)cn2)C3)cn1 [US20230322769, Compound 16]
- pIC50 [1]: 8.44
- pIC50 [2]: 8.08
- pIC50 [3]: 8.62
- pIC50 [4]: 8.32
- pIC50 [5]: 6.39

- pIC50 [1]: 7.76
- pIC50 [2]: 7.55
- pIC50 [3]: 7.32
- pIC50 [4]: 6.89
Compound: COc1ccc(CN(C)CCN(C)c2ccc(-c3cc(-c4cnn(C)c4)cn4ncc(C#N)c34)cn2)cn1 [US20230322769, Compound 17-a]

Compound: COc1ccc(CN2C3CC2CN(c2ccc(-c4cc(N5CC6CC(C5)N6C)cn5ncc(C#N)c45)cn2)C3)cn1 [US20230322769, Compound 17]
- pIC50 [2]: 8.26
- pIC50 [3]: 8.77
- pIC50 [4]: 8.42
- pIC50 [5]: 6.26

Compound: COc1ccc(CN2C3CC2CN(c2ccc(-c4cc(N5CCP(C)(=O)CC5)cn5ncc(C#N)c45)cn2)C3)cn1 [US20230322769, Compound 20]
- pIC50 [1]: 8.67
- pIC50 [2]: 8.39
- pIC50 [3]: 8.84
- pIC50 [4]: 8.49
- pIC50 [5]: 6.47

- pIC50 [2]: 7.01
- pIC50 [3]: 6.49
- pIC50 [4]: 6.07
Compound: COc1ccc(CN2CCN(c3nc(-c4cc(-c5cnn(C)c5)cn5ncc(C#N)c45)cs3)CC2)cn1 [US20230322769, Compound 39]

- pIC50 [2]: 7.51
- pIC50 [3]: 7.27
- pIC50 [4]: 6.62
Compound: COc1ccc(CN2CCC(n3cc(-c4cc(-c5cnn(C)c5)cn5ncc(C#N)c45)cn3)CC2)cn1 [US20230322769, Compound 43]

Compound: COc1ccc(CN2C3CC2CN(c2ccc(-c4cc(N5CCOCC5)cn5ncc(C#N)c45)cn2)C3)cn1 [US20230322769, Compound 65]
- pIC50 [1]: 9.28
- pIC50 [2]: 8.96
- pIC50 [3]: 9.04
- pIC50 [4]: 8.47
- pIC50 [5]: 7.03

Compound: COc1ccc(CN2C3CC2CN(c2ccc(-c4cc(-c5cc6n(n5)CCC6)cn5ncc(C#N)c45)cn2)C3)cn1 [US20230322769, Compound 66]
- pIC50 [2]: 8.65
- pIC50 [3]: 8.39
- pIC50 [4]: 8.36 and 8.11

Compound: COc1ccc(C(=O)N2CCN(c3ccc(-c4cc(-c5cc6n(n5)CCC6)cn5ncc(C#N)c45)cn3)CC2)cn1 [US20230322769, Compound 68]
- pIC50 [1]: 8.22
- pIC50 [2]: 7.90
- pIC50 [3]: 7.97
- pIC50 [4]: 7.58
- pIC50 [5]: 6.73

Compound: COc1ccc(CN2CCCN(c3ccc(-c4cc(-c5cc6n(n5)CCC6)cn5ncc(C#N)c45)cn3)CC2)cn1 [US20230322769, Compound 70]
- pIC50 [1]: 7.51
- pIC50 [2]: 7.58
- pIC50 [3]: 7.37
- pIC50 [4]: 6.95
- pIC50 [5]: 6.41
- pIC50 [6]: 5.32

Compound: COc1ccc(CN2C3CC2CN(c2ccc(-c4cc(NCC(C)(C)O)cn5ncc(C#N)c45)cn2)C3)cn1 [US20230322769, Compound 78]
- pIC50 [1]: 8.34
- pIC50 [2]: 8.89
- pIC50 [3]: 8.26
- pIC50 [4]: 8.08
- pIC50 [5]: 7.28

Compound: COc1ccc(CN2C3CC2CN(c2ccc(-c4cc(N5CC(C)(C)OC5C5CC5)cn5ncc(C#N)c45)cn2)C3)cn1 (stereo unspecified) [US20230322769, Compound 80]
- pIC50 [2]: 7.67
- pIC50 [5]: 6.25

Compound: COc1ccc(CN2C3CC2CN(c2ccc(-c4cc(N(CC5CC5)CC(C)(C)O)cn5ncc(C#N)c45)cn2)C3)cn1 [US20230322769, Compound 81]
- pIC50 [2]: 6.71
- pIC50 [5]: 6.21

Compound: COc1ccc(CN2C3CC2CN(c2ccc(-c4cc(N5CCCC(O)C5)cn5ncc(C#N)c45)cn2)C3)cn1 (stereo unspecified) [US20230322769, Compound 82]
- pIC50 [2]: 7.97
- pIC50 [5]: 6.55

Compound: COc1ccc(CN2C3CC2CN(c2ccc(-c4cc(N5CCOC(C)C5)cn5ncc(C#N)c45)cn2)C3)cn1 (stereo unspecified) [US20230322769, Compound 83]
- pIC50 [2]: 7.80

Compound: COc1ccc(CN2C3CC2CN(c2ccc(-c4cc(N5CCOC[C@@H]5C)cn5ncc(C#N)c45)cn2)C3)cn1 [US20230322769, Compound 84]
- pIC50 [2]: 7.61

Compound: COc1ccc(CN2C3CC2CN(c2ccc(-c4cc(N5CCOC[C@H]5C)cn5ncc(C#N)c45)cn2)C3)cn1 [US20230322769, Compound 85]
- pIC50 [2]: 7.72

- pIC50 [2]: 8.34
- pIC50 [5]: 7.15
Compound: COc1ccc(CN2C3CC2CN(c2ccc(-c4cc(N5CC(C)(O)C5)cn5ncc(C#N)c45)cn2)C3)cn1 [US20230322769, Compound 86]

Compound: COc1ccc(CN2C3CC2CN(c2ccc(-c4cc(N5CC6(COC6)C5)cn5ncc(C#N)c45)cn2)C3)cn1 [US20230322769, Compound 88]
- pIC50 [2]: 8.14
- pIC50 [5]: 7.01

Compound: COc1ccc(CN2C3CC2CN(c2ccc(-c4cc(N5CCN(C)C(=O)C5)cn5ncc(C#N)c45)cn2)C3)cn1 [US20230322769, Compound 89]
- pIC50 [1]: 8.52
- pIC50 [2]: 9.17
- pIC50 [3]: 8.83
- pIC50 [4]: 8.33
- pIC50 [5]: 6.80

Compound: COc1ccc(CN2C3CC2CN(c2ccc(-c4cc(N5CCN(C)CC5)cn5ncc(C#N)c45)cn2)C3)cn1 [US20230322769, Compound 94]
- pIC50 [1]: 8.52
- pIC50 [3]: 8.56
- pIC50 [5]: 6.81

Compound: COc1ccc(CN2C3CC2CN(c2ccc(-c4cc(N5CCNCC5)cn5ncc(C#N)c45)cn2)C3)cn1 [US20230322769, Compound 96]
- pIC50 [2]: 8.28
- pIC50 [5]: 6.62
